Laboratory results from patent US20260283997A1, “METHODS FOR INHIBITING RESISTANCE TO IMMUNE BLOCKADE INHIBITOR THERAPY” (H. LEE MOFFITT CANCER CENTER AND RESEARCH INSTITUTE, INC., priority 2023, published 2026).
Entries after “also recorded” stand apart in the source; their conditions may differ.

Columns and labels:
[1] = system: antigen presentation from DCs to CD4+ T cells; test: DC antigen presentation to OT-II CD4+ T cells, [3H]-thymidine incorporation; format: cell-based, mouse; conditions: for MDSC inhibition of antigen presentation in the presence of iNOS inhibitor: MDSCs derived from B16 melanoma, OVA peptide stimulus
Description: For space constraints only the OVA peptide stimulus is depicted in B and C.
The effects of NO on DC function using transgenic mice were evaluated that express a T cell receptor (TCR) specific for a defined antigen, namely OVA. […] Levels of SNAP or other NO donors such as deta-NONOate can be adjusted to mimic the physiological concentration of NO within MDSCs and be utilized to directly measure binding of tetramers to the TCR complex. To simulate a real world scenario of antigen expressed naturally by the B16 tumors as advised by the reviewers, We can utilize transgenic mice that express a T cell receptor (TCR) specific for the Tyrosinase-Related Protein 1 (Trp-1).

B16 melanoma cells = test: Cytotoxicity of PMEL CD8 T cells against gp-100 coated B16 cells, flow cytometry; format: cell-based; conditions: 100 μM; p=0.02
Description: Cytoxicity was measured via flow cytometry with CellTrace™ Far Red (B16 cells) and a live/dead marker (Zombie™ Green).

STAT1 [2] = test: Nitrated STAT1 by immunoblot after nitrated tyrosine immunoprecipitation in normal donor PBMC; format: cell-based; conditions: normal donor human PBMC
Description: An increased [nSTAT1]/[STAT1] ratio can be associated with resistance to anti-PD-1 therapy. Unfractionated PBMC samples are utilized for the mass spectrometry experiments as they are routinely collected from patients and with the expectation of STAT1 having increased nitration (FIG. 4). A second aliquot of PBMCs from the patients can be stimulated in parallel with IFN and subsequent downstream activation determined via measurement of phosphorylated STAT1. Activation of STAT1 can be measured by intracellular staining for activated (i.e. phosphorylated) STAT1 using flow cytometry. IFN responsiveness decreases by ~30% in metastatic cancer patients. There is an inverse relationship between the levels of pSTAT1 and levels of nitrated STAT1. As a control, STAT1 nitration can be measured in normal donor PBMCs treated with SNAP via immunoblot (FIG. 13). As such, PBMCs from melanoma patients can be compared to normal donors. […] Additional nitrated proteins can be quantified in the future via LC-MRM (Liquid Chromatography, multiple reaction monitoring) including the targets outlined in the introductory material (assay requires <200,000 cells); and can expand the list of which nitration events are important for response to anti-PD1 therapy in case STAT1 is not the only important target.

T cells = test: T cell proliferation after tetanus toxoid antigen presentation from human DC in PBMC sample; format: cell-based; conditions: tetanus toxoid 1 ug/ul
B16 melanoma = test: PD-1 refractory B16 melanoma model; format: in vivo, mouse
Description: NCX-4016 is a nitroaspirin and inhibits the nitric oxide synthase via a negative feedback mechanism. These compounds are available for clinical trial use, and have a toxicity profile that is favorable for evaluation in patients with advanced malignancies. I predict nitroaspirin compounds in combination with anti-PD-1 therapy can rescue the ability to stimulate CD4^+ T cells and decrease tumor growth. […] We can use nitroaspirin alone and along with anti-PD-1 in therapeutically achievable doses in the murine B16 melanoma model to measure tumor growth curves and obtain specimens for analyses.

STAT1 [3] = test: pSTAT1 flow cytometry of normal donor PBMCs stimulated with interferon-alpha; format: cell-based, human
Description: FIGS. 20A, 20B, and 20C show Interferon-alpha stimulation of normal donors PBMCs.
(§1) Flow cytometry and mass spectrometry analyses. Flow cytometric analysis of pSTAT1 and liquid chromatography-tandem mass spectrometry (LC-MS-MS) analysis of nitrated STAT1 (nSTAT1) were conducted on all samples. For flow cytometry studies, frozen PBMCs were thawed at 37° C., washed with culturing media, and allowed to rest overnight in complete media at 5% CO2 at 37° C. PBMCs were stimulated with interferon-α (Miltenyi Biotec, Cambridge, MA) at 0, 10^2 U/mL, and 10^4 U/mL and incubated for 15 minutes in media.
(§2) The live/dead marker Zombie NIR (BioLegend, San Diego, CA) was used before permeabilization to distinguish live cells. The samples were permeabilized using the FIX & PERM Cell Permeabilization Kit with methanol modification (Fisher Scientific, Hampton, MA) and fixed at −20° C. for a minimum of 2 hours. pSTAT1 was detected by a pSTAT1 antibody (AF488; BD Biosciences, San Jose, CA). Flow cytometry data were collected either on Canto or LSRII flow cytometers (BD Biosciences, San Jose, CA), and data were analyzed in FCS Express (De Novo Software, Pasadena, CA). Measurement of patient-derived PBMCs for nSTAT1 and native STAT1 via LC-MS-MS SRM experiments was performed. […]

[4] = system: resected stages IIIC/IV melanoma; test: Phase II trial of adjuvant ipilimumab with a peptide vaccine, clinical outcome; format: in vivo, human
Description: Patient samples. […] Peripheral blood leukocytes were collected before initiation of ipilimumab treatment and at approximately 150 days after the first treatment. PBMCs were available and were de-identified before inclusion in our current study.
Statistical analyses. We conducted statistical analyses to determine whether there is a relationship between levels of pSTAT1, nSTAT1, and RFS. Survival outcome was summarized using Kaplan-Meier method and log-rank test was performed to evaluate the association of survival outcome with pSTAT1 and nSTAT1 levels dichotomized by the median-split method. […] Levene's F-test for the homogeneity of variance was used to compare variance of pSTAT1 level among patients with different RFS rates. Patients were also stratified using the median-split method for a survival comparison analysis of [nSTAT1]post-[nSTAT1]pre with ipilimumab treatment. […] A two-sided P value of <0.05 was considered statistically significant. Treatment outcome is reported at the end of the follow up period for the parent trial (5 years).
Patient demographics. Pre- and post-therapy PBMCs were available from 35 patients with resected stages IIIC/IV melanoma.

STAT1 [5] = test: pSTAT1 flow cytometry of patient PBMCs pre versus post ipilimumab; format: in vivo, human
Description: FIGS. 22A, 22B, and 22C show the paired pSTAT1 level pre versus post ipilimumab treatment without (FIG. 22A) Interferon-alpha stimulation, after (FIG. 22B) 10^2 U/mL Interferon-alpha stimulation, and (FIG. 22C) 10^4 U/mL Interferon-alpha stimulation.
as §1
as §2, with “CA).” for “CA). Measurement of patient-derived PBMCs for nSTAT1 and native STAT1 via LC-MS-MS SRM experiments was performed.”

[6] = system: stage IIIB through IV melanoma; conditions: adjuvant, cited from earlier work; for 12-month RFS rate: stage IIIB through IV melanoma
stage III melanoma = conditions: cited from earlier work
[7] = n = 35, end of follow up period (5 years)

Compound: CC(=O)NC(C(=O)O)C(C)(C)SN=O (racemic) [SNAP, S-Nitroso-N-Acetyl-D,L-Penicillamine]
- DC antigen presentation to CD4+ T cells (proliferation of OT-II T cells) ([1]; nitric oxide donor SNAP, DCs and CD4+ T cells ratio 1:4 from OT-II mouse): inhibit DC antigen presentation to CD4+ T cells
- cytotoxicity of target B16 melanoma cells by effector PMEL CD8 T cells (B16 melanoma cells): reduced
- levels of nitrated STAT1 (STAT1 [2]): elevated levels of nitrated STAT1
- proliferation of T cells after antigen presentation of tetanus toxoid (T cells): decreases proliferation of T cells

Compound: COC(=O)[C@@H](N)CCCNC(=N)N[N+](=O)[O-] [L-NAME, L-nitroarginine methyl ester]
- MDSC inhibition of antigen presentation in the presence of iNOS inhibitor [1]: this effect was abrogated

Compound: CC(=O)Oc1ccccc1C(=O)Oc1cccc(CO[N+](=O)[O-])c1 [NCX-4016]
- MDSC inhibition of antigen presentation in the presence of iNOS inhibitor [1]: this effect was abrogated
- iNOS expression with iNOS inhibitor in-vivo (B16 melanoma; B16 melanoma model): iNOS expression is decreased
- efficacy in combination with anti-PD1 blockade (B16 melanoma; PD-1 refractory B16 melanoma model, combination with anti-PD-1): more efficacious than either treatment alone; also recorded: increases the efficacy of anti-PD1 blockade

Compound: interferon-α
- pSTAT1 levels with increasing interferon levels (STAT1 [3]): concentration-dependent increase in pSTAT1 levels
- concentration showing near-maximum phosphorylation of STAT1 (STAT1 [3]; 15 minutes of treatment): 500 U/ml

Compound: ipilimumab: Monoclonal antibody against CTLA-4
- RFS, 3 mg/kg vs 10 mg/kg ([4]; Log rank P-value=0.96): no statistical significant differences in RFS
- Treatment outcome AWD (alive with disease), Percentage [4, 7]: 6%
- Treatment outcome DOD (died of disease), Percentage [4, 7]: 17%
- Treatment outcome NED (no evidence of disease), Percentage [4, 7]: 77%
- levels of STAT1 pre versus post treatment (STAT1 [5]; 10 mg/kg cohort, t-test, p<0.01): statistically significant increase
- changes in pSTAT1 between the 10 mg/kg and 3 mg/kg cohorts (STAT1 [5]; 150 days post treatment): no statistically significant changes in pSTAT1
- 12-month RFS rate [6]: 60.8%

Compound: nivolumab: Monoclonal antibody against PD-1
- 12-month RFS rate [6]: 70.5%
- toxicity compared to ipilimumab [6]: significantly decreased toxicity

Compound: pembrolizumab: Monoclonal antibody against PD-1
- efficacy compared to interferon-α or ipilimumab (stage III melanoma): increased efficacy
